Measured values published in patent EP0908457B1, “3-(1,2-benzisothiazol- and isoxazol-5-Y1)-2,4(1H,3H)-pyrimidinedione or thione and 3-(1,2-benzisothiazol- and isoxazol-5-y1)-4(3H)-pyrimidinone or thione herbicidal agents” (BASF AKTIENGESELLSCHAFT, priority 1997, dated 1999).

Columns and labels:
[1] = system: Monochoria vaginalis, Presl.; experiment: Preemergence weed control under flooded paddy conditions, MOOVA (Monochoria); type: in vivo; conditions: flooded paddy; for herbicidal effect rating, MOOVA / MOOVA: preemergence weeds; for herbicidal effect rating, MOOVA / MOOVA herbicidal rating: rated three to four weeks after treatment; for MOOVA: herbicidal effect rating 0-9, three to four weeks after treatment; for MOOVA herbicidal rating: preemergence; on herbicidal effect rating, MOOVA: meaning of each grade not given here
[2] = system: Cyperus serotinus, Rottb.; experiment: Preemergence weed control under flooded paddy conditions, CYPSE (Flatsedge); type: in vivo; conditions: for herbicidal effect rating, CYPSE / CYPSE: preemergence weeds; for herbicidal effect rating, CYPSE / CYPSE herbicidal rating: rated three to four weeks after treatment; for CYPSE: herbicidal effect rating 0-9, three to four weeks after treatment; for CYPSE herbicidal rating: preemergence; on herbicidal effect rating, CYPSE: meaning of each grade not given here
Sagittaria pygmaea, L. = experiment: Preemergence weed control under flooded paddy conditions, SAGPY (Arrowhead (Pygmaea)); type: in vivo; conditions: flooded paddy; for herbicidal effect rating, SAGPY / SAGPY: preemergence weeds; for herbicidal effect rating, SAGPY / SAGPY herbicidal rating: rated three to four weeks after treatment; for SAGPY: herbicidal effect rating 0-9, three to four weeks after treatment; for SAGPY herbicidal rating: preemergence; on herbicidal effect rating, SAGPY: meaning of each grade not given here
[3] = system: Echinochloa oryzoides (Ard.) Fritsch.; experiment: Preemergence weed control under flooded paddy conditions, ECHORC (Watergrass (Calif.)); type: in vivo; conditions: flooded paddy; for herbicidal effect rating, ECHORC / ECHORC: preemergence weeds; for herbicidal effect rating, ECHORC / ECHORC herbicidal rating: rated three to four weeks after treatment; for ECHORC: herbicidal effect rating 0-9, three to four weeks after treatment; for ECHORC herbicidal rating: preemergence; on herbicidal effect rating, ECHORC: meaning of each grade not given here
[4] = system: Oryza sativa, (L.) Tebonnet; experiment: Rice tolerance to post-transplant applications under flooded paddy conditions (Example 187), ORYSAT (Rice, Tebonnet); conditions: for herbicidal effect rating ORYSAT / ORYSAT herbicidal rating (rice tolerance): rated three to four weeks after treatment; for ORYSAT: herbicidal effect rating 0-9, three to four weeks after treatment
Cyperus iria = experiment: Preemergence weed control under flooded paddy conditions, CYPIR (Rice Flatsedge); type: in vivo; conditions: flooded paddy; for herbicidal effect rating, CYPIR / CYPIR: preemergence weeds; for herbicidal effect rating, CYPIR / CYPIR herbicidal rating: rated three to four weeks after treatment; for CYPIR: herbicidal effect rating 0-9, three to four weeks after treatment; for CYPIR herbicidal rating: preemergence; on herbicidal effect rating, CYPIR: meaning of each grade not given here

With `Cc1ccc(OCC(=O)NO)c(-c2nsc3ccc(-n4c(=O)cc(C(F)(F)F)n(C)c4=O)cc23)c1` [Example 313, Acetohydroxamic acid, 2-{{2-{5-[3,6-dihydro-3-methyl-2,6-dioxo-4-(trifluoromethyl)-1(2H)-pyrimidinyl]-1,2-benzisothiazol-3-yl}-p-tolyl}oxy}-] the “herbicidal effect rating, MOOVA” value ([1]; Rate 0.0320 kg/ha) was 0.0, the “herbicidal effect rating, MOOVA” value ([1]; Rate 0.0620 kg/ha) was 9.0 and the “herbicidal effect rating, MOOVA” value ([1]; Rate 0.1250 kg/ha) was 9.0. For the same compound, the “herbicidal effect rating, MOOVA” value ([1]; Rate 0.2500 kg/ha) was 9.0, the “herbicidal effect rating, CYPSE” value ([2]; Rate 0.0320 kg/ha) was 0.0 and the “herbicidal effect rating, CYPSE” value ([2]; Rate 0.0620 kg/ha) was 0.0. For the same compound, the “herbicidal effect rating, CYPSE” value ([2]; Rate 0.1250 kg/ha) was 0.0, the “herbicidal effect rating, CYPSE” value ([2]; Rate 0.2500 kg/ha) was 2.0 and the “herbicidal effect rating, SAGPY” value (Sagittaria pygmaea, L.; Rate 0.0320 kg/ha) was 0.0. For the same compound, the “herbicidal effect rating, SAGPY” value (Sagittaria pygmaea, L.; Rate 0.0620 kg/ha) was 0.0, the “herbicidal effect rating, SAGPY” value (Sagittaria pygmaea, L.; Rate 0.1250 kg/ha) was 0.0 and the “herbicidal effect rating, SAGPY” value (Sagittaria pygmaea, L.; Rate 0.2500 kg/ha) was 3.0. The “herbicidal effect rating, ECHORC” value ([3]; Rate 0.0320 kg/ha) was 4.0, the “herbicidal effect rating, ECHORC” value ([3]; Rate 0.0620 kg/ha) was 5.0 and the “herbicidal effect rating, ECHORC” value ([3]; Rate 0.1250 kg/ha) was 6.0. For the same compound, the “herbicidal effect rating, ECHORC” value ([3]; Rate 0.2500 kg/ha) was 9.0, the “herbicidal effect rating ORYSAT” value ([4]; Rate 0.0320 kg/ha) was 0.0 and the “herbicidal effect rating ORYSAT” value ([4]; Rate 0.0620 kg/ha) was 1.0. For the same compound, the “herbicidal effect rating ORYSAT” value ([4]; Rate 0.1250 kg/ha) was 3.0, the “herbicidal effect rating ORYSAT” value ([4]; Rate 0.2500 kg/ha) was 4.0 and the “herbicidal effect rating, CYPIR” value (Cyperus iria; Rate 0.0320 kg/ha) was 0.0. The “herbicidal effect rating, CYPIR” value (Cyperus iria; Rate 0.0620 kg/ha) was 0.0, the “herbicidal effect rating, CYPIR” value (Cyperus iria; Rate 0.1250 kg/ha) was 9.0 and the “herbicidal effect rating, CYPIR” value (Cyperus iria; Rate 0.2500 kg/ha) was 9.0.

For `COC(=O)COc1cc2c(cc1-c1nsc3ccc(-n4c(=O)cc(C(F)(F)F)n(C)c4=O)cc13)CCC2` [Example 434, Acetic acid, {{6-{5-[3,6-dihydro-3-methyl-2,6-dioxo-4-(trifluoromethyl)-1(2H)-pyrimidinyl]-1,2-benzisothiazol-3-yl}-5-indanyl}oxy}-, methyl ester], the MOOVA ([1]; 0.0320 kg/ha) was 9.0, the MOOVA ([1]; 0.0620 kg/ha) was 9.0 and the MOOVA ([1]; 0.1250 kg/ha) was 9.0. The MOOVA ([1]; 0.2500 kg/ha) was 9.0, the CYPSE ([2]; 0.0320 kg/ha) was 4.0 and the CYPSE ([2]; 0.1250 kg/ha) was 4.0. The CYPSE ([2]; 0.2500 kg/ha) was 7.0, the SAGPY (Sagittaria pygmaea, L.; 0.0320 kg/ha) was 4.0 and the SAGPY (Sagittaria pygmaea, L.; 0.0620 kg/ha) was 4.0. For the same compound, the SAGPY (Sagittaria pygmaea, L.; 0.1250 kg/ha) was 5.0, the SAGPY (Sagittaria pygmaea, L.; 0.2500 kg/ha) was 6.0 and the ECHORC ([3]; 0.0320 kg/ha) was 6.0. The ECHORC ([3]; 0.0620 kg/ha) was 7.0, the ECHORC ([3]; 0.1250 kg/ha) was 7.0 and the ECHORC ([3]; 0.2500 kg/ha) was 9.0. For the same compound, the ORYSAT ([4]; 0.0320 kg/ha) was 4.0, the ORYSAT ([4]; 0.0620 kg/ha) was 6.0 and the ORYSAT ([4]; 0.1250 kg/ha) was 6.0. For the same compound, the ORYSAT ([4]; 0.2500 kg/ha) was 7.0, the CYPIR (Cyperus iria; 0.0320 kg/ha) was 3.0 and the CYPIR (Cyperus iria; 0.0620 kg/ha) was 3.0. The CYPIR (Cyperus iria; 0.1250 kg/ha) was 7.0 and the CYPIR (Cyperus iria; 0.2500 kg/ha) was 8.0.

`Cn1c(C(F)(F)F)cc(=O)n(-c2ccc3snc(C(=O)NS(=O)(=O)Cc4cccc(Cl)c4)c3c2)c1=O` [Example 486, 1,2-Benzisothiazole-3-carboxamide, N-[(m-chlorobenzyl)sulfonyl]-5-[3,6-dihydro-3-methyl-2,6-dioxo-4-(trifluoromethyl)-1(2H)-pyrimidinyl]-] was tested, and the MOOVA herbicidal rating ([1]; 0.0320 kg/ha) was 5.0, the MOOVA herbicidal rating ([1]; 0.0620 kg/ha) was 6.0 and the MOOVA herbicidal rating ([1]; 0.1250 kg/ha) was 7.0. The MOOVA herbicidal rating ([1]; 0.2500 kg/ha) was 9.0, the CYPSE herbicidal rating ([2]; 0.0320 kg/ha) was 0.0 and the CYPSE herbicidal rating ([2]; 0.0620 kg/ha) was 0.0. For the same compound, the CYPSE herbicidal rating ([2]; 0.2500 kg/ha) was 3.0, the SAGPY herbicidal rating (Sagittaria pygmaea, L.; 0.0320 kg/ha) was 0.0 and the SAGPY herbicidal rating (Sagittaria pygmaea, L.; 0.0620 kg/ha) was 0.0. For the same compound, the SAGPY herbicidal rating (Sagittaria pygmaea, L.; 0.1250 kg/ha) was 3.0, the SAGPY herbicidal rating (Sagittaria pygmaea, L.; 0.2500 kg/ha) was 6.0 and the ECHORC herbicidal rating ([3]; 0.0320 kg/ha) was 4.0. It also gave an ECHORC herbicidal rating ([3]; 0.0620 kg/ha) of 6.0, an ECHORC herbicidal rating ([3]; 0.1250 kg/ha) of 7.0 and an ECHORC herbicidal rating ([3]; 0.2500 kg/ha) of 9.0. The “ORYSAT herbicidal rating (rice tolerance)” value (“ORYSAT herbicidal rating” below) ([4]; 0.0320 kg/ha) was 0.0, the “ORYSAT herbicidal rating” value ([4]; 0.0620 kg/ha) was 3.0 and the “ORYSAT herbicidal rating” value ([4]; 0.1250 kg/ha) was 5.0. For the same compound, the “ORYSAT herbicidal rating” value ([4]; 0.2500 kg/ha) was 6.0, the CYPIR herbicidal rating (Cyperus iria; 0.0320 kg/ha) was 4.0 and the CYPIR herbicidal rating (Cyperus iria; 0.0620 kg/ha) was 5.0. The CYPIR herbicidal rating (Cyperus iria; 0.1250 kg/ha) was 6.0 and the CYPIR herbicidal rating (Cyperus iria; 0.2500 kg/ha) was 6.0.
